What was measured:
[1] = In vitro inhibition of calcium phosphate crystallization in human plasma (spectrophotometric assay); assay type: biochemical; settings: 0-100 μM, 1.5 mM phosphate, 12.5 mM calcium, pH 7.4, absorbance 550 nm, slope 6-24 min, read-out: Relative Potency
Procedure, shortened: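 Human plasma spiked with compound (0-100 μM), centrifuged, then brought to final 1.5 mM phosphate and 12.5 mM calcium, pH 7.4. Absorbance at 550 nm read every 3 min for 30 min at rt; inhibition from slopes (6-24 min, absorbance vs log time) relative to blank plasma.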

[2] = test system: tissue calcification; assay: In vivo tissue calcification (calcium content by ICP-OES) in vitamin D3-induced limb ischemia rat model; settings: SD rats, vitamin D3 150,000 IU/kg s.c. D1-D3, 30 mg/kg s.c. daily D1-D5, sacrifice D5; for Inhibition of calcification (%) Femoral: femoral arteries; for Inhibition of calcification (%) Kidney: right kidney
Procedure: (§1) The effects of compounds 1, 6, 9, 14, 18, 31, and 39 over blood perfusion and tissue calcification after the inception of limb ischemia were tested using a rat model for a duration of 5 days. Limb ischemia was induced to all groups from D1 to D3 excepting the sham group, to which no ischemia was induced. The animals were administered placebo and active agent formulations from D1 to D5. Observations were taken at several points during the treatment from D0 to D5. All animals were weighed every day before treatment. Seventy-two male Sprague Dawley (SD) rats (Envigo Corp., Huntingdon, GB) weighing approximately 150-200 g were used. The rats were fed with a […]® Rod14-H diet ([…] GmbH, Soest, DE). The rats were divided in 9 groups, 8 animals per group, as follows: • Group 1-Control (Sham) • Group 2-Physiological saline solution • Group 3-Compound 1 • Group 4-Compound 6 • Group 5-Compound 9 • Group 6-Compound 14 • Group 7-Compound 18 • Group 8-Compound 31 • Group 9-Compound 39 Limb ischemia was induced in the rats of groups 2-9 by subcutaneous administration of 150,000 IU/kg vitamin D3 (cholecalciferol, Duphafral D3 1000; Zoetis Inc., Parsippany, NJ, US) in physiological saline solution (2 mL/kg) every day during D1 to D3. The rats of group 1 were not administered vitamin D3. The rats in groups 1 and 2 were administered 2 mL/kg of physiological saline solution daily from D1 to D5 via subcutaneous route. The animals in groups 3-9 were administered subcutaneously 30 mg/kg of compounds 1, 6, 9, 14, 18, 31, and 39, respectively, in physiological saline solution (2 mL/kg), every day from D1 to D5. All rats of groups 1-9 were sacrificed on D5 30 minutes after dosing for determining their Ca baseline values. The animals were anesthetized by isoflurane inhalation. The whole aorta, carotids, femoral arteries, heart, and right kidney of the subjects were collected for calcium content measurement. The tissues were lyophilized for 48-72 h and weighed. The lyophilized tissues were then digested using a 1:1 HNO3:HClO4 mixture in a dry bath incubator for 2-4 h at 180° C. The digested tissues were subsequently diluted using ultra-pure MilliQ® water (MilliporeSigma (Merck KGaA), Burlington, MA, US) to a final volume of 5 mL (i.e., for femoral arteries and carotids) of 10 mL (i.e., for heart, kidneys, and aorta). Calcium content was quantified via inductively coupled plasma optical emission spectrometry (ICP-OES) using an Optima 7300 DV ICP-OES System spectrometer (PerkinElmer, Inc., Waltham, MA, US) according to the manufacturer's instructions. Average blood perfusion recovery compared to vehicle and sham were also calculated. Recovery for sham was 100%. Blood perfusion recovery calculated was using the following equation: 100-((BP sham-BP new drug)/(BP sham-BP vehicle)*100).

[3] = test system: blood perfusion; assay: In vivo blood perfusion (laser doppler perfusion imaging) in vitamin D3-induced limb ischemia rat model; settings: average blood perfusion recovery vs vehicle and sham (sham 100%), SD rats, 30 mg/kg s.c. daily D1-D5
Procedure: as §1, with “to D5. Limb functional and ischemia status were evaluated by using a laser doppler perfusion imaging apparatus PeriCam PSI Normal Resolution (Perimed AB, Järfälla, SE) in all groups at D0 and D5. The perfusion difference and perfusion ratio were calculated by comparing the baseline and either D0 or D5 readings for each group. In addition, the blood perfusion ratio of each treatment group (i.e., groups 2 to 9) to sham group was also calculated. All rats” for “to D5. All rats”

EC50 [1] | SMILES | Inhibition of calcification (%) Aorta [2] | Inhibition of calcification (%) Carotid [2] | Inhibition of calcification (%) Femoral [2] | Inhibition of calcification (%) Heart [2] | Inhibition of calcification (%) Kidney [2] | BP recovery (%) [3]
≤ 5 µM | O=C([O-])CCCCCO[C@@H]1[C@@H](OP(=O)([O-])[O-])[C@H](OCCCCCC(=O)[O-])[C@@H](OP(=O)([O-])[O-])[C@@H](OP(=O)([O-])[O-])[C@H]1OP(=O)([O-])[O-].[Na+].[Na+].[Na+].[Na+].[Na+].[Na+].[Na+].[Na+].[Na+].[Na+] [Compound 18, 4,6-O-bis(5-carboxypentyl)-myo-inositol-1,2,3,5-tetrakis(phosphate) decasodium salt] | Under (Average inhibition percentage over or under 25% inhibition of calcification.) | Under (Average inhibition percentage over or under 25% inhibition of calcification.) | Under (Average inhibition percentage over or under 25% inhibition of calcification.) | Over (Average inhibition percentage over or under 25% inhibition of calcification.) | Over (Average inhibition percentage over or under 25% inhibition of calcification.) | Over (Average blood perfusion recovery over or under 25%.)
≤ 5 µM | O=C([O-])CCn1cc(CO[C@@H]2[C@@H](OP(=O)([O-])[O-])[C@H](OCc3cn(CCC(=O)[O-])nn3)[C@@H](OP(=O)([O-])[O-])[C@@H](OP(=O)([O-])[O-])[C@H]2OP(=O)([O-])[O-])nn1.[Na+].[Na+].[Na+].[Na+].[Na+].[Na+].[Na+].[Na+].[Na+].[Na+] [Compound 31, 4,6-O-bis((1-(2-carboxyethyl)-1H-1,2,3-triazol-4-yl)methyl)-myo-inositol-1,2,3,5-tetrakis(phosphate) decasodium salt] | Over (Average inhibition percentage over or under 25% inhibition of calcification.) | Under (Average inhibition percentage over or under 25% inhibition of calcification.) | Over (Average inhibition percentage over or under 25% inhibition of calcification.) | Over (Average inhibition percentage over or under 25% inhibition of calcification.) | Over (Average inhibition percentage over or under 25% inhibition of calcification.) | Over (Average blood perfusion recovery over or under 25%.)
≤ 5 µM | COCc1cn(CCCCCCO[C@@H]2[C@@H](OP(=O)([O-])[O-])[C@H](OCCCCCCn3cc(COC)nn3)[C@@H](OP(=O)([O-])[O-])[C@@H](OP(=O)([O-])[O-])[C@H]2OP(=O)([O-])[O-])nn1.[Na+].[Na+].[Na+].[Na+].[Na+].[Na+].[Na+].[Na+] [Compound 39, 4,6-O-bis(6-(4-(methoxymethyl)-1H-1,2,3-triazol-1-yl)hexyl)-myo-inositol-1,2,3,5-tetrakis(phosphate) octasodium salt] | Over (Average inhibition percentage over or under 25% inhibition of calcification.) | Under (Average inhibition percentage over or under 25% inhibition of calcification.) | Over (Average inhibition percentage over or under 25% inhibition of calcification.) | Over (Average inhibition percentage over or under 25% inhibition of calcification.) | Over (Average inhibition percentage over or under 25% inhibition of calcification.) | Over (Average blood perfusion recovery over or under 25%.)

Source: patent US20240109924A1, “IP4-4,6 SUBSTITUTED DERIVATIVE COMPOUNDS” (SANIFIT THERAPEUTICS, S.A., priority 2021, published 2024)
